In ChEMBL document CHEMBL3137386, “DNDi T. cruzi fenarimol series dataset from which preclinical candidate EPL-BS1246 was identified (see also related datasets CHEMBL2448688 and CHEMBL3137440)”:
In brackets after ≈: the same amount, converted by molar mass. Several values for one entry are separate records, joined by “and”; a condition that tells them apart may be missing. Identical values can stand only once.

Key:
[1] = DNDI: Lipophilicity (gLogD) at pH 3; type: physicochemical; conditions: buffer
Cytochrome P450 3A4 [2] = target: T1, Cytochrome P450 3A4 (Homo sapiens, UniProt P08684); assay: (§1) DNDI: CYP Inhibition; type: ADME
T1 sequence (P08684 whole entry): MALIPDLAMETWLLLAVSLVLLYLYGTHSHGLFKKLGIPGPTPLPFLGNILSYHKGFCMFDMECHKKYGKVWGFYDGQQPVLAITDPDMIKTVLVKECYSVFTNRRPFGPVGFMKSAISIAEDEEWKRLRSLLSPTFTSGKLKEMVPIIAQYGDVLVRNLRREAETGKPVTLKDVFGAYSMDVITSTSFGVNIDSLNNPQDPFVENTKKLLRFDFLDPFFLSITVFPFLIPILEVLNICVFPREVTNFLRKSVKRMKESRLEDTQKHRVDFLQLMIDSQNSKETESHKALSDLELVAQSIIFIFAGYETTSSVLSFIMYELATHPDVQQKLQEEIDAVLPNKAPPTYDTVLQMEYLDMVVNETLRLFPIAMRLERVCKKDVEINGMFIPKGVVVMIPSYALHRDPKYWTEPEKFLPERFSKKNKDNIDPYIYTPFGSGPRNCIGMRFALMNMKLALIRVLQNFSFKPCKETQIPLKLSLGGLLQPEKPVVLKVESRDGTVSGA

[3] = DNDI: Lipophilicity (gLogD) at pH 7.4; type: physicochemical; conditions: buffer
Trypanosoma cruzi [4] = assay: (§2) DNDI: Chagas in vitro; type: functional, Tulahuen C4 (LacZ)
[5] = (§3) DNDI: Metabolism; type: ADME, Microsome; conditions: human, microsomes; for hepatic extraction ratio: read-out: EH
[6] = tested on: Trypanosoma brucei rhodesiense; assay: DNDI: HAT in vitro; type: functional, organism-based; conditions: ATCC 30027
[7] = DNDI: Solubility in 0.01M HCl at pH 2 determined by nephelometry; type: physicochemical; conditions: 0.01 M HCl
[8] = (§4) DNDI: Cytotoxicity against L-6 rat myoblasts from skeletal muscle; type: toxicity, cell-based, Muscle tissue, L6; conditions: rat, L6 rat skeletal muscle myoblasts
[9] = DNDI: pKa; type: physicochemical
[10] = DNDI: Solubility, 24 hour, FaSSIF buffer - pH 5.8, 37C; type: physicochemical; conditions: read-out: Equilibrium
[11] = (§5) DNDI: Solubility, 24 hour, FaSSIF, 37C; type: physicochemical; conditions: read-out: Equilibrium
Trypanosoma cruzi [12] = assay: as §2; type: functional, organism-based, Tulahuen C4 (LacZ)
[13] = as §3; type: ADME, 10090, Microsome; conditions: mouse, microsomes
[14] = DNDI: Solubility, 24 hour, SGF - pH 1, 37C; type: physicochemical; conditions: read-out: Equilibrium
[15] = as §3; type: ADME, 10116, Microsome; conditions: rat, microsomes
Cytochrome P450 3A4 [16] = target: T1, Cytochrome P450 3A4; assay: as §1; type: ADME; remark: listed apart in the source
[17] = DNDI: Solubility, 24 hour, FaSSIF buffer - pH 6.5. 37C; type: physicochemical; conditions: read-out: Equilibrium
Cytochrome P450 3A4 [18] = target: T1, Cytochrome P450 3A4; assay: as §1; type: ADME; remark: listed apart in the source
[19] = DNDI: Lipophilicity (s.f. LogD) at pH 7.4; type: physicochemical; conditions: buffer
[20] = as §3; type: ADME, Canis lupus familiaris, 9615, Microsome; conditions: dog, microsomes
[21] = DNDI: Lipophilicity (s.f. LogD) at pH 5; type: physicochemical; conditions: buffer
Cytochrome P450 3A4 [22] = target: T1, Cytochrome P450 3A4; assay: as §1; type: ADME; remark: listed apart in the source
[23] = DNDI: Protein binding in dog plasma; type: ADME, Canis lupus familiaris, 9615; conditions: read-out: % bound (converted)
[24] = DNDI: Lipophilicity (s.f. LogD) at pH 2; type: physicochemical; conditions: buffer
[25] = (§6) DNDI: Solubility, 24 hour, Isotonic phos buffer - pH 2; type: physicochemical; conditions: isotonic phosphate buffer, read-out: Equilibrium
[26] = DNDI: Lipophilicity (s.f. LogD water); type: physicochemical
[27] = DNDI: Protein binding 10% serum RPMI; type: ADME; conditions: RPMI with 10% serum; read-out: % bound (converted)
[28] = DNDI: Protein binding in mouse plasma; type: ADME, 10090; conditions: read-out: % bound (converted)
[29] = as §6; type: physicochemical; conditions: isotonic phosphate buffer, read-out: Equilibrium; remark: listed apart in the source
[30] = DNDI: Protein binding in human liver microsomes; type: ADME; conditions: read-out: % bound (converted)
[31] = as §5; type: physicochemical; conditions: read-out: Equilibrium; remark: listed apart in the source
[32] = DNDI: Protein binding in rat plasma; type: ADME, 10116; conditions: read-out: % bound (converted)
L6 = assay: as §4; type: toxicity, cell-based, Muscle tissue; conditions: l6
[33] = DNDI: Protein binding in human plasma; type: ADME; conditions: read-out: % bound (converted)
[34] = Trypanosoma cruzi, Tulahuen C4 (LacZ)

Structure (SMILES): CS(=O)(=O)c1ccc(N2CCN(C(=O)C(c3ccc(C#N)cc3)c3cccnc3)CC2)cc1 (stereo not given)
- chromatographic logD [1]: 1.8
- IC50 (Cytochrome P450 3A4 [2]): > 20000 nM
- chromatographic logD [3]: 2.3
- IC90 (Trypanosoma cruzi [4]): > 100 nM and 29.1 nM
- Clint [5]: 15 µL/min/mg and 10 µL/min/mg and < 7 µL/min/mg
- EH [5]: 0.36 and < 0.28
- t (1 / 2) [5]: 113 min and 169 min and > 250 min
- hepatic extraction ratio [5]: 0.46
- IC50 [6]: > 10000 nM
- solubility kinetic [7]: > 100 µg/mL
- IC50 [8]: > 100000 nM

Structure (SMILES): O=C(C(c1ccc(Cl)cc1)c1cccnc1)N1CCN(c2ccc(C(F)(F)F)cc2)CC1 (stereo not given)
- pKa [9]: 2.62
- chromatographic logD [1]: 4.1
- solubility thermodynamic at 24 h [10]: < 1 µg/mL
- solubility thermodynamic at 24 h [11]: 1.3 µg/mL (≈ 2.83 µM)
- IC50 (Trypanosoma cruzi [12]): 7 nM
- IC50 (Trypanosoma cruzi [12]; [34]): 10 nM
- half-life [13]: 0.5 h
- microsomal CLint [13]: 59 µL/min/mg
- hepatic extraction ratio ([13]; read-out: EH): 0.72
- solubility thermodynamic at 24 h [14]: 1500 µg/mL (≈ 3260 µM)
- half-life [15]: 0.767 h
- microsomal CLint [15]: 38 µL/min/mg
- hepatic extraction ratio ([15]; read-out: EH): 0.55
- chromatographic logD [3]: 4.5
- IC50 (Cytochrome P450 3A4 [16]): 7400 nM
- solubility thermodynamic at 24 h [17]: < 1 µg/mL
- IC90 (Trypanosoma cruzi [4]): 10 nM and 47.5 nM
- half-life [5]: 1.42 h
- microsomal CLint [5]: 20 µL/min/mg
- hepatic extraction ratio [5]: 0.53
- IC50 [6]: > 10000 nM
- IC50 (Cytochrome P450 3A4 [18]): 20000 nM
- logD [19]: 5.54
- half-life [20]: 2.17 h
- microsomal CLint [20]: 13 µL/min/mg
- hepatic extraction ratio ([20]; read-out: EH): 0.38
- logD [21]: 5.47
- IC50 (Cytochrome P450 3A4 [22]): 1200 nM
- fraction unbound [23]: 0.012
- solubility kinetic [7]: > 100 µg/mL
- logD [24]: 2.71
- solubility thermodynamic at 24 h [25]: 127 µg/mL (≈ 276 µM)
- logD [26]: 5.44
- fraction unbound [27]: 0.076
- fraction unbound [28]: 0.014
- solubility thermodynamic at 24 h [29]: < 1 µg/mL
- fraction unbound [30]: 0.023
- solubility thermodynamic at 24 h [31]: 75.9 µg/mL (≈ 165 µM)
- fraction unbound [32]: 0.027
- IC50 (L6): 42400 nM
- IC50 [8]: 37700 nM
- fraction unbound [33]: 0.025

Structure (SMILES): O=C(c1ccccc1)N1CCN(C(=O)C(c2ccc(Cl)cc2)c2cccnc2)CC1 (stereo not given)
- IC50 (Trypanosoma cruzi [12]; [34]): 49.5 nM
- IC90 (Trypanosoma cruzi [4]; [34]): > 100 nM
- IC50 [6]: > 10000 nM
- IC50 [8]: > 100000 nM

Structure (SMILES): O=C(C(c1ccc(Cl)cc1)c1cccnc1)N1CCN(c2nccs2)CC1 (stereo not given)
- IC50 (Trypanosoma cruzi [12]; [34]): 51 nM
- IC90 (Trypanosoma cruzi [4]; [34]): > 100 nM
- IC50 [6]: > 10000 nM
- IC50 [8]: > 100000 nM

Structure (SMILES): CC(C)CN1CCN(C(=O)C(c2ccc(Cl)cc2)c2cccnc2)CC1 (stereo not given)
- IC50 (Trypanosoma cruzi [12]; [34]): 65 nM
- IC90 (Trypanosoma cruzi [4]; [34]): > 100 nM
- IC50 [6]: > 10000 nM
- IC50 [8]: > 100000 nM
